Data published in publication PMC11750672, “The in vivo metabolic pathway of Deg-AZM and in vitro investigations into the contribution of drug metabolizing enzymes and drug transporters in the drug interactions of Deg-AZM, a clinical-stage new transgelin agonist” (Frontiers in Pharmacology, 2025).

Biological target: T1, rCYP3A4 (Homo sapiens, UniProt P08684)
T1 construct: purchased Research Institute for Liver Diseases Co. Ltd., Shanghai
Test: Recombinant CYPs phenotyping assay
Assay type: in vitro ADME
Details: 1 μM, 1.5 h
Procedure: Deg-AZM (1 μM) was treated with pooled NADPH (1 mM) and recombinant CYPs (rCYP1A2, rCYP2B6, rCYP2C8, rCYP2C9, rCYP2C19, rCYP2D6, and rCYP3A4, purchased from Research Institute for Liver Diseases Co. Ltd., Shanghai) at 25 pmol/mL for 90 min. The isoform-selective probe substrates served as positive controls (same as the positive controls in HLM phenotyping assays).

T1 sequence (P08684 whole entry): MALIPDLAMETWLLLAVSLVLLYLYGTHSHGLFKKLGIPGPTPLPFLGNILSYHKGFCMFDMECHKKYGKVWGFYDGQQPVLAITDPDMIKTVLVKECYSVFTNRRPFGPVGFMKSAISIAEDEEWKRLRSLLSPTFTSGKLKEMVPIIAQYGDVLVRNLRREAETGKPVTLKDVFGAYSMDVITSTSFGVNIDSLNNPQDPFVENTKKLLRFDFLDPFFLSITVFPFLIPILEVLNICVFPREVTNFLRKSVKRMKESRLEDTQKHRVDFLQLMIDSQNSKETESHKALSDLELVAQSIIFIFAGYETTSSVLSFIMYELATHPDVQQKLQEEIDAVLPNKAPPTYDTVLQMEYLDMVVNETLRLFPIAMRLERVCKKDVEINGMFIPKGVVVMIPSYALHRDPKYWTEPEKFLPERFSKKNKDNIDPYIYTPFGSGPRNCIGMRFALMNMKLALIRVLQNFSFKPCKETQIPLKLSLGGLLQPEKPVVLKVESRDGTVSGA

SMILES: CCC1OC(=O)C(C)C(O)C(C)C(O)C(C)(O)CC(C)CN(C)C(C)C(O)C1(C)O (centres unmarked) [Deg-AZM, Deglycosylated azithromycin]
- Average residual proportion of Deg-AZM (25 pmol/mL CYP3A4 monomeric enzyme): 75.9%
- Elimination proportion of Deg-AZM (CYP3A4 monomeric enzyme): greater than 15%
